Test results reported in patent publication US4694006A, “Acyl- or acyloxymethyl-allopurinol prodrugs” (priority 1983, dated 1987).
≈ marks a conversion by molar mass, not a printed value. Where a name gives a salt, the structure may show the parent alone. Read-outs that look alike come from different tables or passages of the source.

Experiments:
[1] = tested on: rabbits; assay: Intravenous administration to four rabbits, plasma levels; type: in vivo, rabbit; settings: i.v., 25 mg allopurinol equivalents
[2] = tested on: healthy human volunteer; assay: Rectal micro-enema in a healthy human volunteer, urinary excretion; type: in vivo; settings: 100 mg allopurinol equivalents
Description: The dose given (2 ml of a 0.5% methylcellulose solution containing 118 mg/ml of the prodrug) corresponded to 100 mg of allopurinol. Urine was collected over 5 days and aliquots were assayed for allopurinol and oxipurinol by a specific HPLC assay.

[3] = In-vitro cleavage of allopurinol derivatives to allopurinol in pH 7.4 buffer at 37° C; type: physicochemical; settings: read-out: Half-time (t0.5) of the conversion to allopurinol, pH 7.4 buffer (converted)
Description: (§1) In-vitro cleavage of allopurinol derivatives
(§2) Solutions of various derivatives of allopurinol in aqueous buffer solutions or 80% human plasma solutions (pH 7.4) were kept at 37° C. The initial concentration of the derivatives was in the range 0.01-0.1 mg/ml. At various times an aliquot of the solutions was withdrawn and analyzed by HPLC for remaining derivative as well as for allopurinol. For the plasma solutions the aliquot withdrawn was deproteinized with ethanol or trichloroacetic acid and after centrifugation, the clear supernatant was injected on HPLC.
(§3) An HPLC method was used for the determination of allopurinol and its derivatives. In this method a reversed-phase LiChrosorb RP-8 column (250×4 mm) was eluated at ambient temperature with mixtures of methanol and 0.01M acetate buffer pH 4.5 or methanol and 0.03M phosphate buffer pH 7.0. The composition of the eluant was adjusted for each compound in order to provide an appropriate retention time. The flow rate was 1.2 ml/min and the column effluent was monitored spectrophotometrically at 252 nm or 274 nm. Quantitation of the compounds was done by measurement of peak heights.
(§4) The half-times of allopurinol formation from various derivatives at physiological conditions of pH and temperature are given in Table 2. It can be seen that in the presence of human plasma the rate of degradation is strongly accelerated, thus showing the susceptibility of the derivatives to undergo conversion into the parent active compound at conditions simiar to those prevailing in vivo.

[4] = physchem; settings: for solubility: water
Description: (§5) The water-solubility and lipophilicity of the allopurinol drugs
(§6) The apparent partition coefficients (P) for some allopurinol derivatives and allopurinol were measured using the widely used 1-octanol-water system. Similarly, the solubility of the derivatives in water or aqueous buffer solutions was determined.

[5] = In-vitro cleavage of allopurinol derivatives to allopurinol in 80% human plasma (pH 7.4) at 37° C; type: in vitro ADME; settings: 80% plasma, pH 7.4, 37° C, read-out: Half-time (t0.5) of the conversion to allopurinol, 80% human plasma (converted)
Description: as §1, §2, §3, §4

[6] = Description: as §5, §6
[7] = sodium salt of allopurinol at 0.5-1%; cited from earlier work
[8] = in vivo; cited from earlier work

Row | Compound | half-life [3] | solubility [4] | half-life [5] | log P [6] | other results
1 | CCN(CC)CC(=O)OCn1ncc2c(=O)[nH]cnc21 | 49 min | > 500000 µg/mL | 10 min |  | bioavailability of the parent drug from the prodrug given intravenously [1]: almost complete bioavailability; bioavailability of the parent drug from the prodrug given rectally [2]: virtually complete bioavailability; aqueous solubility relative to the parent compound (factor) [4]: 5,000
2 | CCN(CC)C(C)C(=O)OCn1ncc2c(=O)[nH]cnc21 (racemic) [1-(DL-N,N-Diethylalanyloxymethyl)allopurinol (hydrochloride)] | 21 min | > 400000 µg/mL | 17 min |  | log P ([6]; pH 8): 0.72
3 | NC(Cc1ccccc1)C(=O)OCn1ncc2c(=O)[nH]cnc21 (racemic) [1-(DL-Phenylalanyloxymethyl)allopurinol, 1-(DL-Phenylalanyloxymethyl)allopurinol (hydrobromide)] | 40 min | > 200000 µg/mL | 9 min |  | log P ([6]; pH 8): 0.40
4 | NC(C(=O)OCn1ncc2c(=O)[nH]cnc21)c1ccccc1 (racemic) [1-(DL-Phenylglycyloxymethyl)allopurinol, 1-(DL-Phenylglycyloxymethyl)allopurinol (hydrobromide)] | 20 min | > 200000 µg/mL | 3 min |  | log P ([6]; pH 8): -0.15
5 | CC(N)C(=O)OCn1cc2c(=O)n(COC(=O)C(C)N)cnc2n1 (racemic) [2,5-bis(DL-Alanyloxymethyl)allopurinol, 2,5-bis-(DL-Alanyloxymethyl)allopurinol (dihydrobromide)] | < 1 min |  | < 1 min |  | 
6 | CC(C)(C)C(=O)OCn1cnc2c(cnn2COC(=O)C(C)(C)C)c1=O [1,5-bis(Pivaloyloxymethyl)allopurinol] |  | 20 µg/mL (≈ 0.0549 mM) |  | 2.50 | 
7 | CC(=O)OCn1ncc2c(O)ncnc21 [1-(Acetoxymethyl)allopurinol, 1-(Acetyloxymethyl)allopurinol] | 5220 min | 580 µg/mL (≈ 2.79 mM) | 31 min | -0.35 | 
8 | O=C(c1ccccc1)n1ncc2c(=O)[nH]cnc21 [1-(Benzoyl)allopurinol] | 20 min |  | 4 min | 1.20 | 
9 | O=C(OCn1ncc2c(=O)[nH]cnc21)c1ccccc1 [1-(Benzoyloxymethyl)allopurinol] | 14200 min |  | 4 min | 1.50 | 
10 | CC(C)C[C@H](N)C(=O)OCn1ncc2c(=O)[nH]cnc21 [1-(L-Leucyloxymethyl)allopurinol, 1-(L-Leucyloxymethyl)allopurinol (hydrobromide)] | 17 min | > 400000 µg/mL | 6 min |  | log P ([6]; pH 8): 0.19
11 | CN(C)CC(=O)OCn1ncc2c(=O)[nH]cnc21 [1-(N,N-Dimethylglycyloxymethyl)allopurinol (hydrochloride)] | 72 min | > 500000 µg/mL | 7 min |  | log P ([6]; pH 8): -0.49
12 | CCCN(CCC)CC(=O)OCn1ncc2c(=O)[nH]cnc21 [1-(N,N-Dipropylglycyloxymethyl)allopurinol (hydrochloride)] | 50 min | > 400000 µg/mL | 12 min |  | log P ([6]; pH 8): 1.27
13 | O=C(OCn1ncc2c(=O)[nH]cnc21)c1cccnc1 [1-(Nicotinoyloxymethyl)allopurinol] | 1560 min | 93 µg/mL (≈ 0.343 mM) | 21 min | 0.27 | 
14 | CN(C)CCCC(=O)OCn1ncc2c(=O)[nH]cnc21 [1-[4-(N,N-Dimethylamino)butyryloxymethyl]allopurinol (hydrochloride)] | 145 min |  | 140 min |  | 
15 | CC(=O)OCn1cc2c(=O)n(COC(C)=O)cnc2n1 [2,5-bis(Acetoxymethyl)allopurinol] | 900 min | 2900 µg/mL (≈ 10.3 mM) | 51 min |  | 
16 | CCCC(=O)OCn1cc2c(=O)n(COC(=O)CCC)cnc2n1 [2,5-bis(Butyryloxymethyl)allopurinol] | 2100 min | 94 µg/mL (≈ 0.279 mM) | 32 min | 1.60 | 
17 | CC(C)(C)C(=O)OCn1cc2c(=O)n(COC(=O)C(C)(C)C)cnc2n1 [2,5-bis(Pivaloyloxymethyl)allopurinol] |  |  |  | 2.34 | 
18 | CC(C)(C)C(=O)OCn1cc2c(=O)[nH]cnc2n1 [2-(Pivaloyloxymethyl)allopurinol, 2-(pivaloyloxymethyl)allopurinol] |  | 1700 µg/mL (≈ 6.79 mM) |  | 0.79 | 
19 | Oc1ncnc2[nH]ncc12 [sodium salt of allopurinol] |  |  |  |  | pH of infusion fluids [7]: 10.5-11.5; adverse effects of administration of infusion fluids [8]: may cause thrombophlebitis or perivascular inflammation

Continued, in another order:

Row | half-life [3] | solubility [4] | half-life [5] | log P [6] | Compound | other results
20 | 15 min | > 500000 µg/mL | 11 min |  | CC(N)C(=O)OCn1ncc2c(=O)[nH]cnc21 (racemic) [1-(DL-Alanyloxymethyl)allopurinol (hydrobromide)] | 
21 | 1500 min | 50 µg/mL (≈ 0.149 mM) | 22 min | 1.82 | CCCC(=O)OCn1cnc2c(cnn2COC(=O)CCC)c1=O [1,5-bis(Butyryloxymethyl)allopurinol] | 
22 | 26 min | 750 µg/mL (≈ 4.21 mM) | 6 min | -0.35 | CC(=O)n1ncc2c(O)ncnc21 [1-(Acetyl)allopurinol] | 
23 | 36 min | 110 µg/mL (≈ 0.533 mM) | 2.5 min | 0.85 | CCCC(=O)n1ncc2c(O)ncnc21 [1-(Butyryl)allopurinol] | 
24 | 11600 min |  | 9 min | 0.60 | CCCC(=O)OCn1ncc2c(=O)[nH]cnc21 [1-(Butyryloxymethyl)allopurinol] | 
25 | < 1 min |  | < 1 min |  | O=C(CCl)n1ncc2c(=O)[nH]cnc21 [1-(Chloroacetyl)allopurinol] | 
26 |  |  | 20 min | 0.21 | CCOC(=O)OCn1ncc2c(O)ncnc21 [1-(Ethoxycarbonyloxymethyl)allopurinol] | 
27 | 26 min | > 500000 µg/mL | 9 min |  | NCC(=O)OCn1ncc2c(=O)[nH]cnc21 [1-(Glycyloxymethyl)allopurinol, 1-(Glycyloxymethyl)allopurinol (hydrochloride)] | 
28 | 1.5 min | > 200000 µg/mL | < 1 min |  | CN(C)CC(=O)n1ncc2c(=O)[nH]cnc21 [1-(N,N--Dimethylglycyl)allopurinol, 1-(N,N-Dimethylglycyl)allopurinol (hydrochloride)] | 
29 |  |  | 90 min |  | CCCCNC(=O)n1ncc2c(=O)[nH]cnc21 [1-(N--Butylcarbamoyl)allopurinol, 1-(N-Butylcarbamoyl)allopurinol] | 
30 |  | 520 µg/mL (≈ 2.08 mM) |  | 1.07 | CC(C)(C)C(=O)OCn1ncc2c(O)ncnc21 [1-(Pivaloyloxymethyl)allopurinol] | 
31 | 30 min | 300 µg/mL (≈ 1.56 mM) | 4 min | 0.30 | CCC(=O)n1ncc2c(O)ncnc21 [1-(Propionyl)allopurinol] | 
32 | 4860 min | 33000 µg/mL (≈ 103 mM) | 504 min | -0.22 | CCN(CC)C(=O)CCC(=O)OCn1ncc2c(O)ncnc21 [1-[3-(N,N-Diethylcarbamoyl)propionyloxymethyl]allopurinol] | 
33 | 3240 min | 1500 µg/mL (≈ 6.35 mM) | 22 min | 0.33 | CCCC(=O)OCn1cc2c(=O)[nH]cnc2n1 [2-(Butyryloxymethyl)allopurinol] | 
